Columns and labels:
Type in all cases: cell-based
[1] = target: GPR55 mutant N171Q (Gα13) (Homo sapiens, UniProt Q9Y2T6, N171Q); assay: BRET² G protein dissociation assay, GPR55 N171Q with Gα13
From the text: (§1) To validate the functionality of the GPR55 cryo-EM construct, we conducted bioluminescence resonance energy transfer 2 (BRET²)-based G protein dissociation assays[46],[47] using an engineered heterotrimeric G13 protein. The N-terminal GFP fusion of the receptor was additionally modified with a G67A mutation to disrupt fluorescence properties. We employed human embryonic kidney (HEK) cells overexpressing wt or mutant GPR55 together with Gβ3, Gγ9-GFP, and Gα13 tagged with Renilla luciferase 8 (Rluc8).
(§2) G protein dissociation assays were performed according to the original protocols of the TRUPATH BRET² assay[47],[87] but with subtle modifications as previously described[61],[88],[89]. All reagents and cells were obtained from Thermo Fisher Scientific unless indicated otherwise. The coding sequences for the G protein biosensors[47] (Gα12-Rluc8, Gα13-Rluc8, wt Gβ3, and Gγ9-GFP), the wt GPR55, the construct used for cryo-EM (with GFP bearing a G67A mutation to disrupt fluorescence properties[48] for BRET² assays), GPR55 binding pocket mutants (G152^4.56F, G152^4.56W, N171^ECL2Q, N171^ECL2A, T176^5.33A, R253^6.62A), and the wt TBXA2R were codon-optimized for Homo sapiens, gene-synthesized, and sub-cloned into pcDNA^TM3.1(+) between NheI and HindIII restriction sites by GeneArt (Thermo Fisher Scientific). […] Freshly grown cells were washed with Dulbecco’s Balanced Salt Solution (DPBS, cat. #14200075) and detached using trypsin-ethylenediaminetetraacetic acid (trypsin-EDTA) (cat. #25300-062). Then, the cells were reconstituted to 500,000 cells per mL with fresh medium, and 1,000,000 cells were seeded into each well of a 6-well plate. After 3 h incubation at 37 °C and 5% CO2, adherent cells were transfected with 600 ng DNA (1:1:1:1 ratio of plasmid DNA for GPR55, wt Gβ3, Gγ9-GFP, and Gα12-Rluc8 or Gα13-Rluc8). Plasmid DNA was mixed with 1.5 µL Lipofectamine^TM 2000 (cat. #11668027) in Opti-MEM^TM medium (cat. #31985062) and incubated for 20 min. Then, the mixture was added to each well of the 6-well plate following 24 h incubation at 37 °C and 5% CO2. Transfected cells were washed with DPBS, detached using EDTA (Versene, cat. #15040066), and reconstituted into fresh medium at 500,000 cells mL^−1. From this suspension, 50,000 cells were seeded into each well of a white-bottom 96-well plate (Nunc^TM MicroWell^TM 96 wells, cat. #136101) following overnight incubation at 37 °C and 5% CO2. Then, the adherent cells were washed with assay medium [Hank’s balanced salt solution (HBSS, cat. #14065056) plus 20 mM HEPES pH 7.4 (cat. #15630056)] and finally reconstituted into 50 µL of the same medium. […] Methoxy e-Coelenterazine was used as luciferase substrate (Prolume Purple, NanoLight Technology, cat. #369), reconstituted at 1 mM in methanol and diluted to 37.5 µM with assay buffer (7.5 µM final assay concentration). The assay was started by the addition of 20 µL luciferase substrate to each well of the assay plate using a Multidrop^TM Combi reagent dispenser (Thermo Fisher Scientific), followed by 5 min incubation at room temperature. Then, 30 µL of agonist dilutions or DMSO control was added (final DMSO concentration 1.5%), followed by an additional 5 min incubation at room temperature. BRET² measurements were performed with a PHERAstar® FSX microplate reader (BMG LABTECH) using a BRET² filter (donor emission 370–450 nm, acceptor emission 500–530 nm) at the maximum fluorescence gain of 3600. BRET² ratios were calculated by dividing GFP emission signals from Rluc8 emission counts. Buffer-DMSO controls were subtracted from each data point to calculate ΔBRET² ratios.

[2] = target: GPR55 mutant T176A (Gα13) (Homo sapiens, UniProt Q9Y2T6, T176A); assay: BRET² G protein dissociation assay, GPR55 T176A with Gα13
Sequence of GPR55 mutant T176A (Gα13) (Q9Y2T6 whole entry T176A): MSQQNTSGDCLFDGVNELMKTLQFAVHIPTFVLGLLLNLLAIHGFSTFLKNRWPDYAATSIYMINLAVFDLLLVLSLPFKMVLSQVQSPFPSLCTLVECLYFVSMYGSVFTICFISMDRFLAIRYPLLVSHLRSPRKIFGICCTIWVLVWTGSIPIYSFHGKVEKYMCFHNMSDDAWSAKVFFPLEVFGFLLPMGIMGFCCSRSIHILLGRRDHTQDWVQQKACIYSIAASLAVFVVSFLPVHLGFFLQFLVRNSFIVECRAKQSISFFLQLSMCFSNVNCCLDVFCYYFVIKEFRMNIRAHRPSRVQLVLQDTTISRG
Sequence of GPR55 mutant T176A (Gα13) (Q14344 whole entry partner): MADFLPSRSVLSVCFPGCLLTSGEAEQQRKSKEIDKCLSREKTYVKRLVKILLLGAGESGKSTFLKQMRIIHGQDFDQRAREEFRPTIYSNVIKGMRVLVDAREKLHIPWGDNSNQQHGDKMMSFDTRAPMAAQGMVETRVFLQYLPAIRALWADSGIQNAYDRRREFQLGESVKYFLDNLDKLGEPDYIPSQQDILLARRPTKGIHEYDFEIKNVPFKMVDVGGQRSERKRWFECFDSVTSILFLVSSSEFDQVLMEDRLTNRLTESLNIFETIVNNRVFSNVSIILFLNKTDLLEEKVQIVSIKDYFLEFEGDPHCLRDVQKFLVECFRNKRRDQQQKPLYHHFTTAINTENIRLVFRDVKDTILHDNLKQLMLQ
Sequence of GPR55 mutant T176A (Gα13) (P16520 whole entry partner): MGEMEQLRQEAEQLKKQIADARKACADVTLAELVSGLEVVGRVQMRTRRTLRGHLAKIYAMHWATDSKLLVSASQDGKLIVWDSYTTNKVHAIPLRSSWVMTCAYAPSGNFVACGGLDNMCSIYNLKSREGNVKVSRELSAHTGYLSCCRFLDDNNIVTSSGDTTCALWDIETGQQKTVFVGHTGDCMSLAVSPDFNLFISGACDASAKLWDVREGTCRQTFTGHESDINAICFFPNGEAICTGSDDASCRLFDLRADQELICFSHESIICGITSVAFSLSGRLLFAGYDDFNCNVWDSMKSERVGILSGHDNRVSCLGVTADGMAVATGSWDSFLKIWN
Sequence of GPR55 mutant T176A (Gα13) (O14610 1-66 partner limits assumed): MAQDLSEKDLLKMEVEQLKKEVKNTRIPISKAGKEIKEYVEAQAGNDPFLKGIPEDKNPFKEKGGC
From the text: as §1, §2

wt GPR55 (Gα13) = wt GPR55 (Gα13) (Homo sapiens, UniProt Q9Y2T6); assay: BRET² G protein dissociation assay, wt GPR55 with Gα13; settings: for ΔBRET² ratio (Mean): GPR55-wt-G13
Sequence of wt GPR55 (Gα13) (Q9Y2T6 whole entry): as the sequence (Q9Y2T6 whole entry T176A) above, with A176T counted along it
Sequence of wt GPR55 (Gα13) (Q14344 whole entry partner): as the sequence (Q14344 whole entry partner) above
Sequence of wt GPR55 (Gα13) (P16520 whole entry partner): as the sequence (P16520 whole entry partner) above
Sequence of wt GPR55 (Gα13) (O14610 1-66 partner limits assumed): as the sequence (O14610 1-66 partner limits assumed) above
From the text: as §1, §2

Sequence of GPR55 mutant N171Q (Gα13) (Q9Y2T6 whole entry N171Q, the tested form may be a part): as the sequence (Q9Y2T6 whole entry T176A) above, with N171Q, A176T counted along it
Sequence of GPR55 mutant N171Q (Gα13) (Q14344 whole entry partner, the tested form may be a part): as the sequence (Q14344 whole entry partner) above
Sequence of GPR55 mutant N171Q (Gα13) (P16520 whole entry partner, the tested form may be a part): as the sequence (P16520 whole entry partner) above
Sequence of GPR55 mutant N171Q (Gα13) (O14610 1-66 partner limits assumed): as the sequence (O14610 1-66 partner limits assumed) above

`Cc1cccc(N2CCN(C(=O)c3cc(S(=O)(=O)N(C)C)ccc3N3CCCC3)CC2)c1C` [ML184, 3-[[4-(2,3-dimethylphenyl)-1-piperazinyl]carbonyl]-N,N-dimethyl-4-(1-pyrrolidinyl)benzenesulfonamide] was tested, and the “Mean (plotted) BRET² response, GPR55-N171Q-G13” value (“Mean … GPR55-N171Q-G13” for short) ([1]; Concentration 300 pM) was -0.001828, the “Mean … GPR55-N171Q-G13” value ([1]; Concentration 1e-9 M) was -0.002418 and the “Mean … GPR55-N171Q-G13” value ([1]; Concentration 3e-9 M) was -0.001477. For the same compound, the “Mean … GPR55-N171Q-G13” value ([1]; Concentration 1e-8 M) was -0.0001092, the “Mean … GPR55-N171Q-G13” value ([1]; Concentration 3e-8 M) was -0.001125 and the “Mean … GPR55-N171Q-G13” value ([1]; Concentration 1e-7 M) was -0.006817. The “Mean … GPR55-N171Q-G13” value ([1]; Concentration 3e-7 M) was -0.01585, the “Mean … GPR55-N171Q-G13” value ([1]; Concentration 1e-6 M) was -0.03451 and the “Mean … GPR55-N171Q-G13” value ([1]; Concentration 3e-6 M) was -0.05647. For the same compound, the “Mean … GPR55-N171Q-G13” value ([1]; Concentration 1e-5 M) was -0.07313, the “Mean … GPR55-N171Q-G13” value ([1]; Concentration 3e-5 M) was -0.08032 and the EC50 ([1]; GPR55 N171Q, Gα13) was 1410 nM. For the same compound, the Emax at 30 µM ([1]; GPR55 N171Q, Gα13, 30 µM ligand, same normalization, read-out: Efficacy ± SEM (%)) was 76 ± 2%, the “reduction of potency compared to wt GPR55” value ([1]; N171Q mutant) was 32 fold and the “Mean (plotted) BRET² response, GPR55-T176A-G13” value (“Mean … GPR55-T176A-G13” for short) ([2]; Concentration 300 pM) was 0.001302. The “Mean … GPR55-T176A-G13” value ([2]; Concentration 1e-9 M) was -0.0007282, the “Mean … GPR55-T176A-G13” value ([2]; Concentration 3e-9 M) was -0.005903 and the “Mean … GPR55-T176A-G13” value ([2]; Concentration 1e-8 M) was -0.01189. For the same compound, the “Mean … GPR55-T176A-G13” value ([2]; Concentration 3e-8 M) was -0.02424, the “Mean … GPR55-T176A-G13” value ([2]; Concentration 1e-7 M) was -0.03886 and the “Mean … GPR55-T176A-G13” value ([2]; Concentration 3e-7 M) was -0.05218. For the same compound, the “Mean … GPR55-T176A-G13” value ([2]; Concentration 1e-6 M) was -0.06011, the “Mean … GPR55-T176A-G13” value ([2]; Concentration 3e-6 M) was -0.06604 and the “Mean … GPR55-T176A-G13” value ([2]; Concentration 1e-5 M) was -0.06889. The “Mean … GPR55-T176A-G13” value ([2]; Concentration 3e-5 M) was -0.07107, the EC50 ([2]; GPR55 T176A, Gα13) was 77.6 nM and the Emax at 30 µM ([2]; GPR55 T176A, Gα13, 30 µM ligand, same normalization, read-out: Efficacy ± SEM (%)) was 100 ± 1%. For the same compound, the “reduction of potency compared to wt GPR55” value ([2]; T176A mutant) was 2 fold, the “ΔBRET² ratio (Mean)” value (wt GPR55 (Gα13); 3e-10 M) was -0.004943 and the “ΔBRET² ratio (Mean)” value (wt GPR55 (Gα13); 1e-9 M) was -0.002883. The “ΔBRET² ratio (Mean)” value (wt GPR55 (Gα13); 3e-9 M) was -0.008889, the “ΔBRET² ratio (Mean)” value (wt GPR55 (Gα13); 1e-8 M) was -0.01695 and the “ΔBRET² ratio (Mean)” value (wt GPR55 (Gα13); 3e-8 M) was -0.02473. For the same compound, the “ΔBRET² ratio (Mean)” value (wt GPR55 (Gα13); 1e-7 M) was -0.03149, the “ΔBRET² ratio (Mean)” value (wt GPR55 (Gα13); 3e-7 M) was -0.03626 and the “ΔBRET² ratio (Mean)” value (wt GPR55 (Gα13); 1e-6 M) was -0.04111. For the same compound, the “ΔBRET² ratio (Mean)” value (wt GPR55 (Gα13); 3e-6 M) was -0.04451, the “ΔBRET² ratio (Mean)” value (wt GPR55 (Gα13); 1e-5 M) was -0.04913 and the “ΔBRET² ratio (Mean)” value (wt GPR55 (Gα13); 3e-5 M) was -0.04899. For the same compound, the “G protein activation at GPR55-transfected cells (in words)” value (wt GPR55 (Gα13); wt GPR55, Gα13) was “induced Gα13 activation in a concentration-dependent manner”, the Emax at 30 µM (wt GPR55 (Gα13); wt GPR55, Gα13, 30 µM ligand, 100% = wt GPR55 plus G13-biosensor at 30 µM ML184, 0% = mock plus G13-biosensor, read-out: Efficacy ± SEM (%)) was 100 ± 2% and the EC50 (wt GPR55 (Gα13); wt GPR55, Gα13, read-out: EC50 (Gα13 activation)) was 44.7 nM.
In the case of `CCCCC[C@H](O)/C=C/[C@@H]1[C@@H](C/C=C\CCCC(=O)O)[C@H]2CO[C@@H]1C2` [U-46619], the “Mean … GPR55-N171Q-G13” value ([1]; Concentration 10 pM) is reported as 0.0013, the “Mean … GPR55-N171Q-G13” value ([1]; Concentration 30 pM) is reported as 0.00095 and the “Mean … GPR55-N171Q-G13” value ([1]; Concentration 100 pM) is reported as 0.00685. The “Mean … GPR55-N171Q-G13” value ([1]; Concentration 300 pM) was -0.0003198, the “Mean … GPR55-N171Q-G13” value ([1]; Concentration 1e-9 M) was 0.003698 and the “Mean … GPR55-N171Q-G13” value ([1]; Concentration 3e-9 M) was 0.002984. The “Mean … GPR55-N171Q-G13” value ([1]; Concentration 1e-8 M) was -0.00933, the “Mean … GPR55-N171Q-G13” value ([1]; Concentration 3e-8 M) was 0.006599 and the “Mean … GPR55-N171Q-G13” value ([1]; Concentration 1e-7 M) was 0.005054. For the same compound, the “Mean … GPR55-N171Q-G13” value ([1]; Concentration 3e-7 M) was 0.005811, the “Mean … GPR55-N171Q-G13” value ([1]; Concentration 1e-6 M) was 0.005259 and the “Mean … GPR55-N171Q-G13” value ([1]; Concentration 3e-6 M) was -0.001778. For the same compound, the “Mean … GPR55-N171Q-G13” value ([1]; Concentration 1e-5 M) was 0.001984, the “Mean … GPR55-N171Q-G13” value ([1]; Concentration 3e-5 M) was -0.005542 and the “Mean … GPR55-T176A-G13” value ([2]; Concentration 10 pM) was -0.0049. The “Mean … GPR55-T176A-G13” value ([2]; Concentration 30 pM) was 0.00215, the “Mean … GPR55-T176A-G13” value ([2]; Concentration 100 pM) was 0.0004 and the “Mean … GPR55-T176A-G13” value ([2]; Concentration 300 pM) was 0.0002029. The “Mean … GPR55-T176A-G13” value ([2]; Concentration 1e-9 M) was 0.000161, the “Mean … GPR55-T176A-G13” value ([2]; Concentration 3e-9 M) was 0.0002381 and the “Mean … GPR55-T176A-G13” value ([2]; Concentration 1e-8 M) was -0.0002172. The “Mean … GPR55-T176A-G13” value ([2]; Concentration 3e-8 M) was 0.0004783, the “Mean … GPR55-T176A-G13” value ([2]; Concentration 1e-7 M) was -0.0003604 and the “Mean … GPR55-T176A-G13” value ([2]; Concentration 3e-7 M) was 0.004625. The “Mean … GPR55-T176A-G13” value ([2]; Concentration 1e-6 M) was 0.001082, the “Mean … GPR55-T176A-G13” value ([2]; Concentration 3e-6 M) was -0.0002941 and the “Mean … GPR55-T176A-G13” value ([2]; Concentration 1e-5 M) was 0.003133. The “Mean … GPR55-T176A-G13” value ([2]; Concentration 3e-5 M) was 0.0069 and the “G protein activation at GPR55-transfected cells (in words)” value (wt GPR55 (Gα13); wt GPR55, Gα13) was “inactive”.

— paper PMC11861906, “Structural basis for lipid-mediated activation of G protein-coupled receptor GPR55” (Nature Communications, 2025)
